The record followed here is patent publication US9061028B2, “Process for the preparation of Nilotinib” (Natco Pharma Limited, priority 2012, dated 2015).

Series [1] in a line: Thermal stability of polymorph form on heating at 60-70° C., examined by XRPD. In kind it is physicochemical. Conditions: for Polymorph form detected after heating: oil bath 60-70° C., XRPD.
Series [2] in a line: Polymorph stability under accelerated stress conditions (40±2° C., 75±5% RH), by XRD. In kind it is physicochemical. Conditions: accelerated high humidity stress conditions.

Molecules are shown by their SMILES. Where a name gives a salt, the structure may show the parent alone.

Regarding `Cc1cn(-c2cc(NC(=O)c3ccc(C)c(Nc4nccc(-c5cccnc5)n4)c3)cc(C(F)(F)F)c2)cn1` [Nilotinib hydrochloride], the Stability to heat entry in series [1] (70° C./40 hours) is listed as “stable to heat”. In addition, the “Polymorph form detected after heating” value in series [1] (time of heating 10 hours), in series [1] (time of heating 20 hours), in series [1] (time of heating 30 hours) and in series [1] (time of heating 40 hours) was “XRD pattern unchanged” each time. Further, the Hygroscopicity entry (40° C./75% RH) is given as “non-hygroscopic”. The “Final moisture content after 60 days 40° C. at humidity of 75%” value (60 days, 40° C./75% RH, karl-fischer) is recorded as 5.2%. For the same molecule, the “Initial moisture Content (%)” value (before storage, karl-fischer) stood at 5.26%. For the same molecule, the “XRD spectra after storage” value in series [2] was “essentially the same and unchanged”.
